Values after ≈ are worked out from the molar mass of the structure shown. Like-named read-outs stand apart in the source and are kept apart here.
Assays:
[1] = Aqueous solubility (slurry shaken ca. 24 hours, filtered, HPLC); type: physicochemical
Protocol: Aqueous Solubility: Aqueous solubility was measured using the following protocol. Slurries of genistein and of crystalline genistein sodium dihydrate salt were made up in aqueous media in which pH was set at 4.5, 6.7, and 7.5, each slurry was shaken at ambient temperature for ca. 24 hours and then filtered using a 0.2 μm filter into a clean vial. The saturated solutions were then diluted and analyzed for API (genistein) content using N-Ac-DL-Methionine on a Chirobiotic T HPLC column and UV detector set at λmax=270 nm. The mobile phase was acetonitrile/water run in isocratic mode over a 30 minute period. The results are presented in Table 3, (BDL=below detection limits).

[2] = Solubility in different solvents (aliquot addition until dissolution); type: physicochemical
Protocol: Solubility in different solvents: Solubility in different organic solvents was measured using the following protocol. Approximately 25 mg portions of genistein and crystalline genistein sodium dihydrate salt were placed in 48 different vials, separately. 5 volume aliquots of each solvent were added exclusively to a vial. Between each addition, the mixture was checked for dissolution and if no dissolution was apparent, the procedure was continued until dissolution was observed or when 50 volumes had been added.

[3] = SuperSol 1000 kinetic and equilibrium solubility assay
[4] = rat, mean ± SD, n = 3
Protocol: Preparation of Dosing Solutions for In-Vivo Study: Genistein and Crystalline genistein sodium salt dihydrate were stored at room temperature under desiccant and protected from light. The dosing solutions were prepared fresh from powders on the day of dosing. The dosing solution for intravenous administration (IV) was prepared at 1 mg/mL (free acid) in 50:50 DMSO:saline. The dosing solutions for intraduodenal administration (ID) were prepared at 2 mg/mL (genistein free acid) in a 0.2% sodium carboxymethyl cellulose (Na CMC) solution in water.
Animal Dosing: The pharmacokinetics of genistein was evaluated in fasted male Sprague-Dawley rats. Each animal was fitted with a jugular vein cannula (JVC) for blood sampling. Animals intended for intravenous dosing were fitted with an additional JVC for dose administration. Animals intended for intraduodenal dosing were fitted with an intraduodenal cannula (IDC) for dose administration. Surgically modified animals were housed one per cage. All animals were supplied with a commercial rodent diet (LabDiet, Certified Rodent Diet #5002) ad libitum prior to study initiation. […] Water was supplied ad libitum.
Intraduodenal dosing solutions were administered as a single bolus dose at time zero on the day of dosing. Intravenous doses were administered as a slow IV injection over approximately 1 minute. Blood sampling times began at the end of the infusion. Blood samples were collected.
Each blood sample was collected from the rats via a jugular vein cannula and placed into chilled polypropylene tubes containing sodium heparin as an anticoagulant. Samples were centrifuged at a temperature of 4° C. and at a speed of 13,000 rpm for 5 minutes. Samples were maintained chilled throughout processing. Each plasma sample was split into two aliquots. The first aliquot contained 50 μL of plasma. All remaining plasma volume was used for the second aliquot. Samples were then placed on dry ice, and stored in a freezer set to maintain −60° C. to −80° C. The total concentration of genistein in plasma samples were analyzed by LC-MS/MS after an overnight incubation with glucuronidase/arylsulfatase enzyme mixture. Pharmacokinetic parameters were calculated using the WinNonlin software.
Analysis of Plasma Samples: An LC-MS/MS analytical method for the determination of genistein in rat plasma was developed. Prior to sample analysis, a standard curve was analyzed to determine the specificity, range, and linearity of the method. Total genistein in plasma samples was determined by pre-treating all samples with β-glucuronidase/arylsulfatase enzymes and incubating prior to analysis. Incubation with the enzyme mix deconjugated any glucuronide or sulfate metabolites of genistein back to the parent form.
Acceptance Criteria for LC-MS/MS Analysis: One standard curve was dispersed throughout each analytical run. At least ⅝ of the standards must be accurate to within ±20%, except at the LLOQ where ±25% is acceptable, in order for the run to pass.
Pharmacokinetic Analysis: Individual plasma concentrations versus time data for genistein were subjected to non-compartmental analysis using the pharmacokinetic program WinNonlin v. […] Plasma concentrations below the limit of quantitation (10 ng/mL) were assigned a value of zero for PK analysis only.

[5] = cited from earlier work

For `O=c1c(-c2ccc(O)cc2)coc2cc(O)cc(O)c12` [Genistein, 4′,5,7-trihydroxyisoflavone-5,7-dihydroxy-3-(4-hydroxyphenyl)-4H-1-benzopyran-4-one], the Aqueous solubility ([1]; Water/slurry pH 4.5, ambient temperature) was “BDL”, the Aqueous solubility ([1]; Water/slurry pH 6.7, ambient temperature) was “BDL” and the Aqueous solubility ([1]; Water/slurry pH 7.5, ambient temperature) was “BDL”. The solubility ([2]; aqueous with cosolvent or surfactant or cyclodextrin, thermodynamic from solid, Acetone/Water (50:50)) was less than 10.1 mg/mL, the solubility ([2]; organic solvent or mixture, thermodynamic from solid, 1,4-dioxane) was less than 10.3 mg/mL and the solubility ([2]; organic solvent or mixture, thermodynamic from solid, 1-Butanol (BuOH)) was less than 10.5 mg/mL. For the same compound, the solubility ([2]; organic solvent or mixture, thermodynamic from solid, 2-Propanol (IPA)) was less than 10.5 mg/mL, the solubility ([2]; organic solvent or mixture, thermodynamic from solid, Acetone) was roughly 17 mg/mL (≈ 62.9 mM) and the solubility ([2]; organic solvent or mixture, thermodynamic from solid, Acetone/IPA (50:50)) was 20.1 mg/mL (≈ 74.4 mM). For the same compound, the solubility ([2]; organic solvent or mixture, thermodynamic from solid, Acetonitrile (MeCN)) was less than 10.1 mg/mL, the solubility ([2]; organic solvent or mixture, thermodynamic from solid, Cyclohexane) was less than 10.7 mg/mL and the solubility ([2]; organic solvent or mixture, thermodynamic from solid, Dichloromethane (DCM)) was less than 10.3 mg/mL. It also gave a solubility ([2]; organic solvent or mixture, thermodynamic from solid, Diisopropylether (DIPE)) of less than 10.6 mg/mL, a solubility ([2]; organic solvent or mixture, thermodynamic from solid, Dimethyl sulfoxide (DMSO)) of roughly 100 mg/mL (≈ 370 mM) and a solubility ([2]; organic solvent or mixture, thermodynamic from solid, Ethanol (EtOH)) of less than 10.8 mg/mL. The solubility ([2]; organic solvent or mixture, thermodynamic from solid, Heptane) was less than 10.5 mg/mL, the solubility ([2]; organic solvent or mixture, thermodynamic from solid, Methanol (MeOH)) was less than 10.6 mg/mL and the solubility ([2]; organic solvent or mixture, thermodynamic from solid, Methyl acetate (MeOAc)) was less than 10.3 mg/mL. For the same compound, the solubility ([2]; organic solvent or mixture, thermodynamic from solid, Methyl isobutyl ketone (MIBK)) was less than 10.1 mg/mL, the solubility ([2]; organic solvent or mixture, thermodynamic from solid, Methylethyl ketone (MEK)) was less than 10.8 mg/mL and the solubility ([2]; organic solvent or mixture, thermodynamic from solid, N-Methyl-2-pyrrolidinone (NMP)) was roughly 68 mg/mL (≈ 252 mM). It also gave a solubility ([2]; organic solvent or mixture, thermodynamic from solid, N-N-dimethylformamide (DMF)) of roughly 100 mg/mL (≈ 370 mM), a solubility ([2]; organic solvent or mixture, thermodynamic from solid, Octanol) of less than 10.5 mg/mL and a solubility ([2]; organic solvent or mixture, thermodynamic from solid, Tetrahydrofuran (THF)) of 26.3 mg/mL (≈ 97.3 mM). The solubility ([2]; organic solvent or mixture, thermodynamic from solid, Toluene) was less than 10.1 mg/mL, the solubility ([2]; organic solvent or mixture, thermodynamic from solid, Toluene/Dioxane (50:50)) was less than 10.1 mg/mL and the solubility ([2]; organic solvent or mixture, thermodynamic from solid, tert-Butylmethyl ether (TBME)) was less than 10.5 mg/mL. For the same compound, the “C[Eq] (late kinetic solubility)” value ([3]; EtOH 100%) was 13.79 mg×1^−1, the “C[MSS] (early kinetic solubility)” value ([3]; EtOH 100%) was 5.81 mg×1^−1 and the “ISI (Intrinsic Solubility Index)” value ([3]; EtOH 100%) was 2.11. For the same compound, the “ISI / late solubility profile, rating in words” value (“ISI / late solubility profile” below) ([3]; EtOH 100%) was “good”, the “KSR (Kinetic Solubility ratio)” value ([3]; EtOH 100%) was 0.42 and the “KSR, rating in words” value ([3]; EtOH 100%) was “acceptable”. For the same compound, the “MSS (Maximum Solubility Speed)” value ([3]; EtOH 100%) was 23.81 mg×1^−1×min^−1, the “MSS, rating in words” value ([3]; EtOH 100%) was “good” and the “ΔC [C, − CMSS]” value ([3]; EtOH 100%) was 7.98 mg×1^−1. For the same compound, the “C[Eq] (late kinetic solubility)” value ([3]; EtOH/dH2O 50/50 (vol/vol)) was 12.87 mg×1^−1, the “C[MSS] (early kinetic solubility)” value ([3]; EtOH/dH2O 50/50 (vol/vol)) was 7.43 mg×1^−1 and the “ISI (Intrinsic Solubility Index)” value ([3]; EtOH/dH2O 50/50 (vol/vol)) was 1.55. For the same compound, the “ISI / late solubility profile” value ([3]; EtOH/dH2O 50/50 (vol/vol)) was “good”, the “KSR (Kinetic Solubility ratio)” value ([3]; EtOH/dH2O 50/50 (vol/vol)) was 0.58 and the “KSR, rating in words” value ([3]; EtOH/dH2O 50/50 (vol/vol)) was “acceptable”. For the same compound, the “MSS (Maximum Solubility Speed)” value ([3]; EtOH/dH2O 50/50 (vol/vol)) was 12.18 mg×1^−1×min^−1, the “MSS, rating in words” value ([3]; EtOH/dH2O 50/50 (vol/vol)) was “good” and the “ΔC [CEq − CMSS]” value ([3]; EtOH/dH2O 50/50 (vol/vol)) was 5.44 mg×1^−1. The “C[Eq] (late kinetic solubility)” value ([3]; EtOH/dH2O 75/25 (vol/vol)) was 14.03 mg×1^−1, the “C[MSS] (early kinetic solubility)” value ([3]; EtOH/dH2O 75/25 (vol/vol)) was 8.52 mg×1^−1 and the “ISI (Intrinsic Solubility Index)” value ([3]; EtOH/dH2O 75/25 (vol/vol)) was 1.49. The “ISI / late solubility profile” value ([3]; EtOH/dH2O 75/25 (vol/vol)) was “good”, the “KSR (Kinetic Solubility ratio)” value ([3]; EtOH/dH2O 75/25 (vol/vol)) was 0.61 and the “KSR, rating in words” value ([3]; EtOH/dH2O 75/25 (vol/vol)) was “good”. For the same compound, the “MSS (Maximum Solubility Speed)” value ([3]; EtOH/dH2O 75/25 (vol/vol)) was 19.67 mg×1^−1×min^−1, the “MSS, rating in words” value ([3]; EtOH/dH2O 75/25 (vol/vol)) was “good” and the “ΔC [CEq − CMSS]” value ([3]; EtOH/dH2O 75/25 (vol/vol)) was 5.51 mg×1^−1. The AUClast ([4]; intraduodenal, 20 mg/kg) was 414 ± 111 kg·ng·h/mL/mg, the AUClast ([4]; intravenous, 1 mg/kg) was 2533 ± 638 kg·ng·h/mL/mg and the “AUC∞” value ([4]; intravenous, 1 mg/kg) was 2584 ± 639 kg·ng·h/mL/mg. The “Solubility in water (in words)” value ([5]; background statement) was “practically insoluble” and the “Aqueous solubility (reported)” value ([5]; reported range) was 0.01 to 0.04 µM.

Reference: patent US7863325B2, “Crystalline genistein sodium salt dihydrate” (Axcentua Pharmaceuticals AB, priority 2008, dated 2011)
